# Reference: PubChem BioAssay AID2060497 (Molecular Pharmacology Branch, DTP, NCI, 2025)
# System: 317291-083-R-J1-PDC complex spheroids, viability
# Experiment: Anticancer human tumor 317291-083-R-J1-PDC patient-derived soft tissue sarcoma cell line growth inhibition [GQUAD]
# Conditions: for IC50: curve of first compound; for viability, T/C: stronger effect = lower value
# How it was run: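 Tumor cells were grown as complex spheroids with HUVEC endothelial cells and mesenchymal stem cells as stroma. G-quadruplex stabilizers were combined with targeted agents over half-log dilutions from near the clinical Cmax, or from 10 microM.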
# [1] = second compound 0.0316 µM, first compound 0.000999 µM
# [2] = second compound 0.0316 µM, first compound 0.00316 µM
# [3] = second compound 0.0316 µM, first compound 0.00999 µM
# [4] = second compound 0.0316 µM, first compound 0.0316 µM
# [5] = second compound 0.0316 µM, first compound 0.0999 µM
# [6] = second compound 0.0316 µM, first compound 0.316 µM
# [7] = second compound 0.1 µM, first compound 0.000999 µM
# [8] = second compound 0.1 µM, first compound 0.00316 µM
# [9] = second compound 0.1 µM, first compound 0.00999 µM
# [10] = second compound 0.1 µM, first compound 0.0316 µM
# [11] = second compound 0.1 µM, first compound 0.0999 µM
# [12] = second compound 0.1 µM, first compound 0.316 µM
# [13] = second compound 0.316 µM, first compound 0.000999 µM
# [14] = second compound 0.316 µM, first compound 0.00316 µM
# [15] = second compound 0.316 µM, first compound 0.00999 µM
# [16] = second compound 0.316 µM, first compound 0.0316 µM
# [17] = second compound 0.316 µM, first compound 0.0999 µM
# [18] = second compound 0.316 µM, first compound 0.316 µM
# [19] = second compound 1 µM, first compound 0.000999 µM
# [20] = second compound 1 µM, first compound 0.00316 µM
# [21] = second compound 1 µM, first compound 0.00999 µM
# [22] = second compound 1 µM, first compound 0.0316 µM
# [23] = second compound 1 µM, first compound 0.0999 µM
# [24] = second compound 1 µM, first compound 0.316 µM
# [25] = second compound 3.16 µM, first compound 0.000999 µM
# [26] = second compound 3.16 µM, first compound 0.00316 µM
# [27] = second compound 3.16 µM, first compound 0.00999 µM
# [28] = second compound 3.16 µM, first compound 0.0316 µM
# [29] = second compound 3.16 µM, first compound 0.0999 µM
# [30] = second compound 3.16 µM, first compound 0.316 µM
# [31] = second compound 10 µM, first compound 0.000999 µM
# [32] = second compound 10 µM, first compound 0.00316 µM
# [33] = second compound 10 µM, first compound 0.00999 µM
# [34] = second compound 10 µM, first compound 0.0316 µM
# [35] = second compound 10 µM, first compound 0.0999 µM
# [36] = second compound 10 µM, first compound 0.316 µM
# [37] = second compound 0.0316 µM, first compound 0.1 µM
# [38] = second compound 0.0316 µM, first compound 1 µM
# [39] = second compound 0.0316 µM, first compound 3.16 µM
# [40] = second compound 0.0316 µM, first compound 10 µM
# [41] = second compound 0.1 µM, first compound 0.1 µM
# [42] = second compound 0.1 µM, first compound 1 µM
# [43] = second compound 0.1 µM, first compound 3.16 µM
# [44] = second compound 0.1 µM, first compound 10 µM
# [45] = second compound 0.316 µM, first compound 0.1 µM
# [46] = second compound 0.316 µM, first compound 1 µM
# [47] = second compound 0.316 µM, first compound 3.16 µM
# [48] = second compound 0.316 µM, first compound 10 µM
# [49] = second compound 1 µM, first compound 0.1 µM
# [50] = second compound 1 µM, first compound 1 µM
# [51] = second compound 1 µM, first compound 3.16 µM
# [52] = second compound 1 µM, first compound 10 µM
# [53] = second compound 3.16 µM, first compound 0.1 µM
# [54] = second compound 3.16 µM, first compound 1 µM
# [55] = second compound 3.16 µM, first compound 3.16 µM
# [56] = second compound 3.16 µM, first compound 10 µM
# [57] = second compound 10 µM, first compound 0.1 µM
# [58] = second compound 10 µM, first compound 1 µM
# [59] = second compound 10 µM, first compound 3.16 µM
# [60] = second compound 10 µM, first compound 10 µM
# 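Further: spheroids exposed to compounds for one week before readout.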
# 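Wherever viability, T/C is given: percent viability relative to DMSO vehicle wells taken as 100%.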
smiles,measurement,setting,value
Cn1ncnc1[C@H]1c2n[nH]c(=O)c3cc(F)cc(c23)N[C@@H]1c1ccc(F)cc1 + CN(C)c1ccc(Nc2c3ccc(NC(=O)CCN4CCCC4)cc3nc3cc(NC(=O)CCN4CCCC4)ccc23)cc1,IC50,second compound 0.0316 µM,> 316 nM
same,IC50,second compound 0.1 µM,> 316 nM
same,IC50,second compound 0.316 µM,205 nM
same,IC50,second compound 1 µM,14.9 nM
same,IC50,second compound 3.16 µM,< 0.999 nM
same,IC50,second compound 10 µM,< 0.999 nM
same,"viability, T/C",[1],112%
same,"viability, T/C",[2],94%
same,"viability, T/C",[3],85%
same,"viability, T/C",[4],74.7%
same,"viability, T/C",[5],67.4%
same,"viability, T/C",[6],66.6%
same,"viability, T/C",[7],115%
same,"viability, T/C",[8],87.6%
same,"viability, T/C",[9],90.3%
same,"viability, T/C",[10],87.6%
same,"viability, T/C",[11],81.9%
same,"viability, T/C",[12],65.3%
same,"viability, T/C",[13],68.9%
same,"viability, T/C",[14],79.3%
same,"viability, T/C",[15],72.8%
same,"viability, T/C",[16],61.9%
same,"viability, T/C",[17],60.5%
same,"viability, T/C",[18],44.6%
same,"viability, T/C",[19],54.3%
same,"viability, T/C",[20],49.3%
same,"viability, T/C",[21],62.1%
same,"viability, T/C",[22],34.1%
same,"viability, T/C",[23],38.2%
same,"viability, T/C",[24],47.9%
same,"viability, T/C",[25],35.7%
same,"viability, T/C",[26],24%
same,"viability, T/C",[27],24.9%
same,"viability, T/C",[28],18.5%
same,"viability, T/C",[29],28.6%
same,"viability, T/C",[30],17.7%
same,"viability, T/C",[31],9.05%
same,"viability, T/C",[32],13.8%
same,"viability, T/C",[33],8.55%
same,"viability, T/C",[34],12.2%
same,"viability, T/C",[35],5.71%
same,"viability, T/C",[36],8.04%
CCc1c2c(nc3ccc(O)cc13)-c1cc3c(c(=O)n1C2)COC(=O)[C@]3(O)CC + Cc1cnc(CNC(=O)c2c(=O)c3ccc(N4CCCN(C)CC4)nc3n3c2sc2ccccc23)cn1,IC50,second compound 0.0316 µM,< 0.999 nM
same,IC50,second compound 0.1 µM,< 0.999 nM
same,IC50,second compound 0.316 µM,< 0.999 nM
same,IC50,second compound 1 µM,< 0.999 nM
same,IC50,second compound 3.16 µM,< 0.999 nM
same,IC50,second compound 10 µM,< 0.999 nM
same,"viability, T/C",[1],39.3%
same,"viability, T/C",[2],18%
same,"viability, T/C",[3],10.7%
same,"viability, T/C",[4],7.46%
same,"viability, T/C",[5],9.54%
same,"viability, T/C",[6],5.6%
same,"viability, T/C",[7],33.9%
same,"viability, T/C",[8],16%
same,"viability, T/C",[9],11.3%
same,"viability, T/C",[10],13.6%
same,"viability, T/C",[11],5.29%
same,"viability, T/C",[12],3.08%
same,"viability, T/C",[13],20.6%
same,"viability, T/C",[14],21.5%
same,"viability, T/C",[15],15.5%
same,"viability, T/C",[16],9.82%
same,"viability, T/C",[17],7.3%
same,"viability, T/C",[18],2.31%
same,"viability, T/C",[19],21.9%
same,"viability, T/C",[20],25.9%
same,"viability, T/C",[21],11.1%
same,"viability, T/C",[22],9.26%
same,"viability, T/C",[23],12.2%
same,"viability, T/C",[24],1.09%
same,"viability, T/C",[25],26.1%
same,"viability, T/C",[26],14.9%
same,"viability, T/C",[27],9.17%
same,"viability, T/C",[28],2.26%
same,"viability, T/C",[29],2.54%
same,"viability, T/C",[30],0.17%
same,"viability, T/C",[31],15.2%
same,"viability, T/C",[32],7.77%
same,"viability, T/C",[33],8.64%
same,"viability, T/C",[34],8.52%
same,"viability, T/C",[35],6.98%
same,"viability, T/C",[36],0.18%
COc1ccc([C@@H](O)c2cc(-c3ncnc4cc(N5CCOCC5)ccc34)c(F)cc2Cl)nn1 + CN(C)c1ccc(Nc2c3ccc(NC(=O)CCN4CCCC4)cc3nc3cc(NC(=O)CCN4CCCC4)ccc23)cc1,IC50,second compound 0.0316 µM,5630 nM
same,IC50,second compound 0.1 µM,4160 nM
same,IC50,second compound 0.316 µM,2040 nM
same,IC50,second compound 1 µM,114 nM
same,IC50,second compound 3.16 µM,< 31.6 nM
same,IC50,second compound 10 µM,< 31.6 nM
same,"viability, T/C",[4],111%
same,"viability, T/C",[37],108%
same,"viability, T/C",[6],94%
same,"viability, T/C",[38],89.4%
same,"viability, T/C",[39],67.4%
same,"viability, T/C",[40],33.1%
same,"viability, T/C",[10],104%
same,"viability, T/C",[41],97.5%
same,"viability, T/C",[12],104%
same,"viability, T/C",[42],82%
same,"viability, T/C",[43],57%
same,"viability, T/C",[44],31%
same,"viability, T/C",[16],85.2%
same,"viability, T/C",[45],76.3%
same,"viability, T/C",[18],71.6%
same,"viability, T/C",[46],61%
same,"viability, T/C",[47],43.5%
same,"viability, T/C",[48],21.9%
same,"viability, T/C",[22],57.5%
same,"viability, T/C",[49],42.6%
same,"viability, T/C",[24],47.9%
same,"viability, T/C",[50],42.5%
same,"viability, T/C",[51],28.8%
same,"viability, T/C",[52],12.8%
same,"viability, T/C",[28],22.4%
same,"viability, T/C",[53],24.1%
same,"viability, T/C",[30],32.2%
same,"viability, T/C",[54],15.5%
same,"viability, T/C",[55],8.93%
same,"viability, T/C",[56],6.58%
same,"viability, T/C",[34],12.8%
same,"viability, T/C",[57],15%
same,"viability, T/C",[36],3.27%
same,"viability, T/C",[58],5.49%
same,"viability, T/C",[59],11.5%
same,"viability, T/C",[60],1.01%
C#Cc1c(F)ccc2cc(O)cc(-c3ncc4c(N5CC6CCC(C5)N6)nc(OCC56CCCN5CC(F)C6)nc4c3F)c12 (stereo not drawn) + CN(C)c1ccc(Nc2c3ccc(NC(=O)CCN4CCCC4)cc3nc3cc(NC(=O)CCN4CCCC4)ccc23)cc1,IC50,second compound 0.0316 µM,5660 nM
same,IC50,second compound 0.1 µM,5140 nM
same,IC50,second compound 0.316 µM,1010 nM
same,IC50,second compound 1 µM,< 31.6 nM
same,IC50,second compound 3.16 µM,< 31.6 nM
same,IC50,second compound 10 µM,< 31.6 nM
same,"viability, T/C",[4],111%
same,"viability, T/C",[37],90.8%
same,"viability, T/C",[6],106%
same,"viability, T/C",[38],107%
same,"viability, T/C",[39],68%
same,"viability, T/C",[40],32.4%
same,"viability, T/C",[10],91.3%
same,"viability, T/C",[41],98.9%
same,"viability, T/C",[12],89.5%
same,"viability, T/C",[42],86.2%
same,"viability, T/C",[43],64.8%
same,"viability, T/C",[44],29.6%
same,"viability, T/C",[16],72.7%
same,"viability, T/C",[45],74.4%
same,"viability, T/C",[18],62.9%
same,"viability, T/C",[46],49.9%
same,"viability, T/C",[47],47.9%
same,"viability, T/C",[48],42.1%
same,"viability, T/C",[22],46.9%
same,"viability, T/C",[49],35%
same,"viability, T/C",[24],27.5%
same,"viability, T/C",[50],19.7%
same,"viability, T/C",[51],17.1%
same,"viability, T/C",[52],0.42%
same,"viability, T/C",[28],5.12%
same,"viability, T/C",[53],2.52%
same,"viability, T/C",[30],4.56%
same,"viability, T/C",[54],2.64%
same,"viability, T/C",[55],1.07%
same,"viability, T/C",[56],0.36%
same,"viability, T/C",[34],0.32%
same,"viability, T/C",[57],0.73%
same,"viability, T/C",[36],0.29%
same,"viability, T/C",[58],0.39%
same,"viability, T/C",[59],0.24%
same,"viability, T/C",[60],0.39%
